Data as given in patent US11111237B2, “Bicyclic compound and use thereof” (SK BIOPHARMACEUTICALS CO., LTD., priority 2019, dated 2021).

Molecular target: PRMT5-MEP50 enzyme complex (Homo sapiens (Human), UniProt O14744)
Test: PRMT5 enzyme activity in vitro assay (methylation of histone H4R3, ELISA absorbance at 450 nm)
Type: biochemical
Conditions: SAM, histone H4 peptide, room temperature 2 hours, 8 points from 10 μM to 0.128 nM
Procedure: Method for Measuring Enzyme Activity
In vitro assay: PRMT5-MEP50 enzyme complex, cofactor S-adenosylmethionine (SAM) and histone H4 peptide were reacted in vitro, and methylation of arginine (H4R3)—which is the third amino acid of histone H4—was measured in order to measure the enzyme activity of PRMT5.
Reagents: PRMT5-MEP50 enzyme complex (Catalog No. 51045), blocking buffer (52100-B), histone methyltransferase reaction buffer 2 (4×HMT assay buffer 2, Catalog No. 52170), and primary antibody (primary antibody 4-3, Catalog No. 52150) were purchased from BPS Bioscience (USA). The histone H4 peptide (1-20 amino acids) was custom made by Komabiotech (Korea) and used. S-adenosylmethionine was purchased from NEB (New England Biolabs, USA, Catalog No. B9003S). Plates for coating histone H4 peptide, washing buffer and color development reagent were purchased from the following vendors: Plate (Immobilizer™-Amino Plate, NUNC, Denmark, Catalog No. 436023), carbonate-bicarbonate buffer (Sigma-Aldrich, USA, Catalog No. C3041), washing buffer (10×TBST, Biosesang, Korea, Catalog No. T2005), TMB ELISA substrate (Abcam, UK, Catalog No. ab210902), horseradish peroxidase (HRP)-conjugated antibody (Abcam, UK, Catalog No. ab6721).
Experimental procedure: The histone H4 peptide was diluted with carbonate-bicarbonate buffer and prepared to 100 μg/mL, and then dispensed onto the plate per 100 μL and reacted at 37° C. for 1 hour. PRMT5-MEP50 enzyme complex and S-adenosylmethionine were diluted with histone methyltransferase reaction buffer to prepare 5 μg/mL and 2 μM, respectively, and then 20 μL of PRMT5-MEP50 enzyme complex and 25 μL of S-adenosylmethionine were dispensed onto the plate prepared above. 5 μL of the compound diluted with 10% dimethyl sulfoxide solution was added thereto and reacted at room temperature for 2 hours (final volume=50 μL). The concentration of the compound was diluted 1:5 from 10 μM until the lowest concentration of 0.128 nM, and 8 points were used for the test. After preparing the primary antibody by diluting 1:2000 with blocking buffer, 100 μL was added to the plate and reacted at room temperature for 1 hour. After preparing horseradish peroxidase-conjugated antibody by diluting 1:10,000 with blocking buffer, 100 μL was added to the plate and reacted at room temperature for 1 hour. 100 μL of TMB substrate was added and reacted for 3 minutes at room temperature, and 100 μL of 1 N sulfuric acid was then added to terminate the reaction. Then, the absorbance at 450 nm was measured to calculate the IC50 value of the compound. (+++: 1 to 100 nM, ++: greater than 100 to 1,000 nM, +: greater than 1,000 to 10,000 nM)

Chain of PRMT5-MEP50 enzyme complex (O14744 2-637): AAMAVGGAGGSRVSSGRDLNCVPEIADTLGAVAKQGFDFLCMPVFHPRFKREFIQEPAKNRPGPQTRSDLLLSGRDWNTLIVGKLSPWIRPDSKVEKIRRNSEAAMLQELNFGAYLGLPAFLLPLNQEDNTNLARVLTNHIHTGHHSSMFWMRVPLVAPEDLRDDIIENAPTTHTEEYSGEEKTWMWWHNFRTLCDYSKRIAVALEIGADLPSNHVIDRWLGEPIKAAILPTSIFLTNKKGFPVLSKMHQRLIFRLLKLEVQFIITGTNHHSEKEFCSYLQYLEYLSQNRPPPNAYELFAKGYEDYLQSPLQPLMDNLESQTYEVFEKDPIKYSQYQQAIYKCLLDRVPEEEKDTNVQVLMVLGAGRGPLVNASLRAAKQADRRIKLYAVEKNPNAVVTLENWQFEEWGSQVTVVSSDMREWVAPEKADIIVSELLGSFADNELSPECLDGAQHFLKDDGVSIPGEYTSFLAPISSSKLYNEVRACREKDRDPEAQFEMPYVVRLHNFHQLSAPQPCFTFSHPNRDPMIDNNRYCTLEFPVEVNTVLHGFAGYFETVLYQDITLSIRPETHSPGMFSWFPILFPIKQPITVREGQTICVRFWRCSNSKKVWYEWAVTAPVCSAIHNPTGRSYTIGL
Chain of PRMT5-MEP50 enzyme complex (Q9BQA1 2-342 partner): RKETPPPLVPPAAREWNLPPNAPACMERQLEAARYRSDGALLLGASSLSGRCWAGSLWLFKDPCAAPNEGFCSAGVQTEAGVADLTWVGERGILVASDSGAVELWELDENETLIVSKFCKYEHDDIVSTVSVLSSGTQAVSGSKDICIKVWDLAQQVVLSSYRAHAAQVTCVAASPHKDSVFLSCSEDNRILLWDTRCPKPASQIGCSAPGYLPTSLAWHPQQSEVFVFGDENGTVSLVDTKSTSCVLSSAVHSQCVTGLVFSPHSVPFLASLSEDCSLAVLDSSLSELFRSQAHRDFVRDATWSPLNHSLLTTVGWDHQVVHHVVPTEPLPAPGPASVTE

Row | IC50 [nM] | Compound
1 | 100 to 1000 | O=C1c2ccc(CN3CCC(O)C3)cc2OCCN1C[C@H](O)CN1CCc2ccccc2C1 (stereo partly drawn) [Example 35, 4-[(2R)-3-(3,4-dihydro-1H-isoquinolin-2-yl)-2-hydroxy-propyl]-8-[(3-hydroxypyrrolidin-1-yl)methyl]-2,3-dihydro-1,4-benzoxazepin-5-one]
2 | 100 to 1000 | C[C@@H]1CCCN1Cc1ccc2c(c1)OCCN(C[C@H](O)CN1CCc3ccccc3C1)C2=O [Example 36, 4-[(2R)-3-(3,4-dihydro-1H-isoquinolin-2-yl)-2-hydroxy-propyl]-8-[[(2R)-2-methylpyrrolidin-1-yl]methyl]-2,3-dihydro-1,4-benzoxazepin-5-one]
3 | 1000 to 10000 | O=C1c2ccc(CN3CCCC(CO)C3)cc2OCCN1C[C@H](O)CN1CCc2ccccc2C1 (stereo partly drawn) [Example 37, 4-[(2R)-3-(3,4-dihydro-1H-isoquinolin-2-yl)-2-hydroxy-propyl]-8-[[3-(hydroxymethyl)-1-piperidyl]methyl]-2,3-dihydro-1,4-benzoxazepin-5-one]
4 | 100 to 1000 | O=C1c2ccc(CN3CCCCC3CO)cc2OCCN1C[C@H](O)CN1CCc2ccccc2C1 (stereo partly drawn) [Example 41, 4-[(2R)-3-(3,4-dihydro-1H-isoquinolin-2-yl)-2-hydroxy-propyl]-8-[[2-(hydroxymethyl)-1-piperidyl]methyl]-2,3-dihydro-1,4-benzoxazepin-5-one]
5 | 1 to 100 | O=C1c2ccc(CN3CCCC(F)C3)cc2OCCN1C[C@H](O)CN1CCc2ccccc2C1 (stereo partly drawn) [Example 43, 4-[(2R)-3-(3,4-dihydro-1H-isoquinolin-2-yl)-2-hydroxy-propyl]-8-[(3-fluoro-1-piperidyl)methyl]-2,3-dihydro-1,4-benzoxazepin-5-one]
6 | 1 to 100 | O=C1c2ccc(CN3CCCC(O)C3)cc2OCCN1C[C@H](O)CN1CCc2ccccc2C1 (stereo partly drawn) [Example 44, 4-[(2R)-3-(3,4-dihydro-1H-isoquinolin-2-yl)-2-hydroxy-propyl]-8-[(3-hydroxy-1-piperidyl)methyl]-2,3-dihydro-1,4-benzoxazepin-5-one]
7 | 1 to 100 | O=C1c2ccc(CN3CCC(O)CC3)cc2OCCN1C[C@H](O)CN1CCc2ccccc2C1 [Example 45, 4-[(2R)-3-(3,4-dihydro-1H-isoquinolin-2-yl)-2-hydroxy-propyl]-8-[(4-hydroxy-1-piperidyl)methyl]-2,3-dihydro-1,4-benzoxazepin-5-one]
8 | 100 to 1000 | O=C1c2ccc(CN3CCC[C@H]3CO)cc2OCCN1C[C@H](O)CN1CCc2ccccc2C1 [Example 46, 4-[(2R)-3-(3,4-dihydro-1H-isoquinolin-2-yl)-2-hydroxy-propyl]-8-[[(2S)-2-(hydroxymethyl)pyrrolidin-1-yl]methyl]-2,3-dihydro-1,4-benzoxazepin-5-one]
9 | 100 to 1000 | O=C1c2ccc(CN3CCC[C@@H]3CO)cc2OCCN1C[C@H](O)CN1CCc2ccccc2C1 [Example 47, 4-[(2R)-3-(3,4-dihydro-1H-isoquinolin-2-yl)-2-hydroxy-propyl]-8-[[(2R)-2-(hydroxymethyl)pyrrolidin-1-yl]methyl]-2,3-dihydro-1,4-benzoxazepin-5-one]
10 | 100 to 1000 | CCC1CCCN1Cc1ccc2c(c1)OCCN(C[C@H](O)CN1CCc3ccccc3C1)C2=O (stereo partly drawn) [Example 48, 4-[(2R)-3-(3,4-dihydro-1H-isoquinolin-2-yl)-2-hydroxy-propyl]-8-[(2-ethylpyrrolidin-1-yl)methyl]-2,3-dihydro-1,4-benzoxazepin-5-one]
11 | 100 to 1000 | COC[C@@H]1CCCN1Cc1ccc2c(c1)OCCN(C[C@H](O)CN1CCc3ccccc3C1)C2=O [Example 49, 4-[(2R)-3-(3,4-dihydro-1H-isoquinolin-2-yl)-2-hydroxy-propyl]-8-[[(2S)-2-(methoxymethyl)pyrrolidin-1-yl]methyl]-2,3-dihydro-1,4-benzoxazepin-5-one]
12 | 1 to 100 | COC[C@H]1CCCN1Cc1ccc2c(c1)OCCN(C[C@H](O)CN1CCc3ccccc3C1)C2=O [Example 50, 4-[(2R)-3-(3,4-dihydro-1H-isoquinolin-2-yl)-2-hydroxy-propyl]-8-[[(2R)-2-(methoxymethyl)pyrrolidin-1-yl]methyl]-2,3-dihydro-1,4-benzoxazepin-5-one]
13 | 100 to 1000 | O=C1c2ccc(CN3CCC(F)C3)cc2OCCN1C[C@H](O)CN1CCc2ccccc2C1 (stereo partly drawn) [Example 51, 4-[(2R)-3-(3,4-dihydro-1H-isoquinolin-2-yl)-2-hydroxy-propyl]-8-[(3-fluoropyrrolidin-1-yl)methyl]-2,3-dihydro-1,4-benzoxazepin-5-one]

Further lines, the compound ahead of its results:

Row | Compound | IC50 [nM]
14 | O=C1c2ccc(CN3CC4(COC4)C3)cc2OCCN1C[C@H](O)CN1CCc2ccccc2C1 [Example 28, 4-[(2R)-3-(3,4-dihydro-1H-isoquinolin-2-yl)-2-hydroxy-propyl]-8-(2-oxa-6-azaspiro[3.3]heptan-6-ylmethyl)-2,3-dihydro-1,4-benzoxazepin-5-one] | 1 to 100
15 | COC1CN(Cc2ccc3c(c2)OCCN(C[C@H](O)CN2CCc4ccccc4C2)C3=O)C1 [Example 29, 4-[(2R)-3-(3,4-dihydro-1H-isoquinolin-2-yl)-2-hydroxy-propyl]-8-[(3-methoxyazetidin-1-yl)methyl]-2,3-dihydro-1,4-benzoxazepin-5-one] | 100 to 1000
16 | CC1CN(Cc2ccc3c(c2)OCCN(C[C@H](O)CN2CCc4ccccc4C2)C3=O)CCO1 (stereo partly drawn) [Example 30, 4-[(2R)-3-(3,4-dihydro-1H-isoquinolin-2-yl)-2-hydroxy-propyl]-8-[(2-methylmorpholin-4-yl)methyl]-2,3-dihydro-1,4-benzoxazepin-5-one] | 1 to 100
17 | O=C1c2ccc(CN3CCC(F)(F)CC3)cc2OCCN1C[C@H](O)CN1CCc2ccccc2C1 [Example 31, 8-[(4,4-difluoro-1-piperidyl)methyl]-4-[(2R)-3-(3,4-dihydro-1H-isoquinolin-2-yl)-2-hydroxy-propyl]-2,3-dihydro-1,4-benzoxazepin-5-one] | 1 to 100
18 | O=C1c2ccc(CN3CCC(F)CC3)cc2OCCN1C[C@H](O)CN1CCc2ccccc2C1 [Example 32, 4-[(2R)-3-(3,4-dihydro-1H-isoquinolin-2-yl)-2-hydroxy-propyl]-8-[(4-fluoro-1-piperidyl)methyl]-2,3-dihydro-1,4-benzoxazepin-5-one] | 1 to 100
19 | CC1CC(C)CN(Cc2ccc3c(c2)OCCN(C[C@H](O)CN2CCc4ccccc4C2)C3=O)C1 (stereo partly drawn) [Example 33, 4-[(2R)-3-(3,4-dihydro-1H-isoquinolin-2-yl)-2-hydroxy-propyl]-8-[(3,5-dimethyl-1-piperidyl)methyl]-2,3-dihydro-1,4-benzoxazepin-5-one] | 100 to 1000
20 | O=C1c2ccc(CN3CC4CCCC4C3)cc2OCCN1C[C@H](O)CN1CCc2ccccc2C1 (stereo partly drawn) [Example 34, 8-(3,3a,4,5,6,6a-hexahydro-1H-cyclopenta[c]pyrrol-2-ylmethyl)-4-[(2R)-3-(3,4-dihydro-1H-isoquinolin-2-yl)-2-hydroxy-propyl]-2,3-dihydro-1,4-benzoxazepin-5-one] | 1 to 100
21 | COC1CCN(Cc2ccc3c(c2)OCCN(C[C@H](O)CN2CCc4ccccc4C2)C3=O)CC1 [Example 38, 4-[(2R)-3-(3,4-dihydro-1H-isoquinolin-2-yl)-2-hydroxy-propyl]-8-[(4-methoxy-1-piperidyl)methyl]-2,3-dihydro-1,4-benzoxazepin-5-one] | 100 to 1000
22 | O=C1c2ccc(CN3CCCOCC3)cc2OCCN1C[C@H](O)CN1CCc2ccccc2C1 [Example 39, 4-[(2R)-3-(3,4-dihydro-1H-isoquinolin-2-yl)-2-hydroxy-propyl]-8-(1,4-oxazepan-4-ylmethyl)-2,3-dihydro-1,4-benzoxazepin-5-one] | 100 to 1000
23 | CC1(O)CCN(Cc2ccc3c(c2)OCCN(C[C@H](O)CN2CCc4ccccc4C2)C3=O)C1 (stereo partly drawn) [Example 40, 4-[(2R)-3-(3,4-dihydro-1H-isoquinolin-2-yl)-2-hydroxy-propyl]-8-[(3-hydroxy-3-methyl-pyrrolidin-1-yl)methyl]-2,3-dihydro-1,4-benzoxazepin-5-one] | 1 to 100
24 | O=C1c2ccc(CN3CCCC(F)(F)C3)cc2OCCN1C[C@H](O)CN1CCc2ccccc2C1 [Example 42, 8-[(3,3-difluoro-1-piperidyl)methyl]-4-[(2R)-3-(3,4-dihydro-1H-isoquinolin-2-yl)-2-hydroxy-propyl]-2,3-dihydro-1,4-benzoxazepin-5-one] | 100 to 1000
25 | O=C1c2ccc(CN3CCC(F)(F)C3)cc2OCCN1C[C@H](O)CN1CCc2ccccc2C1 [Example 52, 8-[(3,3-difluoropyrrolidin-1-yl)methyl]-4-[(2R)-3-(3,4-dihydro-1H-isoquinolin-2-yl)-2-hydroxy-propyl]-2,3-dihydro-1,4-benzoxazepin-5-one] | 100 to 1000
